Measured values: patent publication US11840686B2, “Modulation of prekallikrein (PKK) expression” (Ionis Pharmaceuticals, Inc., priority 2013, dated 2023)
Strand notation (5' to 3'): a small letter for the sugar, then the base; units joined by * are phosphorothioate-linked, units joined directly phosphodiester-linked; [ ] holds rarer units or linkages, { } end groups; capitals alone tell only the bases. e = 2'-O-(2-methoxyethyl) (MOE); [5mC] = 5-methylcytosine; d = 2'-deoxy (DNA)

Columns and labels:
human PKK mRNA [1] = assay: Dose-dependent antisense inhibition of human PKK in HepaRG cells, 0.19-5.00 uM (Example 5); assay type: cell-based; conditions: HepaRG cells
Summary of the method: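 HepaRG cells (20,000/well) were electroporated with antisense oligonucleotide at 0.19, 0.56, 1.67 and 5.00 μM and treated for about 16 hours. PKK mRNA was quantified by qRT-PCR with primer probe set RTS3454, normalised to RIBOGREEN total RNA, and IC50 was derived per oligonucleotide.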

human PKK mRNA [2] = assay: Antisense inhibition of human PKK mRNA in HepaRG cells, 5,000 nM (Example 2); assay type: cell-based
Summary of the method: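 Percent inhibition of PKK mRNA is reported relative to untreated cells, after adjustment for total RNA by RIBOGREEN. Gapmers of 16–20 nucleosides with 2′-MOE wings were delivered at 5,000 nM by electroporation into HepaRG cells and left for roughly 24 hours before RNA isolation.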

[3] = electroporation, approximately 16 hours, Table 38
[4] = 4 point dose response, Table 38
[5] = human PKK mRNA, HepaRG cells, 5-10-5 motif oligonucleotides targeting SEQ ID NO: 1 and 10
[6] = HepaRG cells, electroporation with 5,000 nM antisense oligonucleotide, approximately 24 hours, PKK mRNA by RT-PCR (RTS3454), relative to untreated control cells, Table 6 experiment
[7] = electroporation, approximately 16 hours, Table 35
[8] = electroporation, approximately 16 hours, Table 40
[9] = electroporation, approximately 16 hours, Table 37

547636 (eG*eT*eA*eT*e[5mC]*dA*d[5mC]*dT*dG*dT*dA*d[5mC]*dT*dA*dG*eT*eT*eT*eT*e[5mC]; antisense) [compound 547636]
percent inhibition of PKK at 0.19 μM (human PKK mRNA [1]; [3]): 0% | percent inhibition of PKK at 0.56 μM (human PKK mRNA [1]; [3]): 24% | percent inhibition of PKK at 1.67 μM (human PKK mRNA [1]; [3]): 79% | percent inhibition of PKK at 5.00 μM (human PKK mRNA [1]; [3]): 94% | IC50 (human PKK mRNA [1]; [4]): 1100 nM | % inhibition (human PKK mRNA [2]; [5]): 86%

547337 (antisense eA*eA*e[5mC]*eT*e[5mC]*d[5mC]*dT*dT*dT*dA*dT*dA*dA*dA*dT*eG*eT*e[5mC]*eT*e[5mC]) [compound 547337]
percent inhibition of PKK at 0.19 μM (human PKK mRNA [1]; [3]): 23% | percent inhibition of PKK at 0.56 μM (human PKK mRNA [1]; [3]): 41% | percent inhibition of PKK at 1.67 μM (human PKK mRNA [1]; [3]): 55% | percent inhibition of PKK at 5.00 μM (human PKK mRNA [1]; [3]): 79% | IC50 (human PKK mRNA [1]; [4]): 1000 nM | % inhibition (human PKK mRNA [2]; [6]): 84%

546268 (e[5mC]*eT*eT*e[5mC]*e[5mC]*dT*dT*dA*d[5mC]*dA*dG*dT*d[5mC]*dT*dT*e[5mC]*eT*eG*eG*eG; antisense) [compound 546268]
percent inhibition of PKK at 0.19 μM (human PKK mRNA [1]; [7]): 56% | percent inhibition of PKK at 0.56 μM (human PKK mRNA [1]; [7]): 50% | percent inhibition of PKK at 1.67 μM (human PKK mRNA [1]; [7]): 82% | percent inhibition of PKK at 5.00 μM (human PKK mRNA [1]; [7]): 93% | percent inhibition of PKK at 5.00 μM (human PKK mRNA [1]; electroporation, approximately 16 hours, Table 41): 92% | percent inhibition of PKK at 0.19 0μM (human PKK mRNA [1]; 0.19 0μM, electroporation, approximately 16 hours, Table 41): 0% | percent inhibition of PKK at 0.56 0μM (human PKK mRNA [1]; 0.56 0μM, electroporation, approximately 16 hours, Table 41): 71% | percent inhibition of PKK at 1.67 1μM (human PKK mRNA [1]; 1.67 1μM, electroporation, approximately 16 hours, Table 41): 92% | IC50 (human PKK mRNA [1]; 4 point dose response, Table 41): 500 nM | % inhibition (human PKK mRNA [2]; Table 8, HepaRG cells, electroporation with 5,000 nM antisense oligonucleotide, approx. 24 hours, PKK mRNA by RT-PCR (RTS3454), relative to untreated control cells): 93%

546310 (antisense eG*eA*eT*eT*e[5mC]*d[5mC]*d[5mC]*dT*dT*d[5mC]*dT*dG*dA*dG*dA*e[5mC]*eT*eT*eT*eA) [compound 546310]
percent inhibition of PKK at 0.19 μM (human PKK mRNA [1]; [8]): 0% | percent inhibition of PKK at 0.56 μM (human PKK mRNA [1]; [8]): 36% | percent inhibition of PKK at 1.67 μM (human PKK mRNA [1]; [8]): 56% | percent inhibition of PKK at 5.00 μM (human PKK mRNA [1]; [8]): 80% | IC50 (human PKK mRNA [1]; 4 point dose response, Table 40): 1300 nM | % inhibition (human PKK mRNA [2]; Table 9 experiment, HepaRG cells, 20,000 cells per well, electroporation with 5,000 nM antisense oligonucleotide, approx. 24 hours, PKK mRNA by RT-PCR (RTS3454), relative to untreated control cells): 78% | % inhibition (human PKK mRNA [2]; Table 10 experiment, HepaRG cells, 20,000 cells per well, electroporation with 5,000 nM antisense oligonucleotide, approx. 24 hours, PKK mRNA by RT-PCR (RTS3454), relative to untreated control cells): 67%

546195 (antisense eG*e[5mC]*eT*eA*eA*d[5mC]*d[5mC]*dT*dT*dA*dG*dA*d[5mC]*dA*d[5mC]*eA*eT*eT*eA*eA) [compound 546195]
percent inhibition of PKK at 0.19 μM (human PKK mRNA [1]; [3]): 34% | percent inhibition of PKK at 0.56 μM (human PKK mRNA [1]; [3]): 51% | percent inhibition of PKK at 1.67 μM (human PKK mRNA [1]; [3]): 79% | percent inhibition of PKK at 5.00 μM (human PKK mRNA [1]; [3]): 92% | IC50 (human PKK mRNA [1]; [4]): 500 nM | percent inhibition of PKK mRNA, 0.19 μM (human PKK mRNA [1]; 0.19 μM antisense oligonucleotide): 0% | percent inhibition of PKK mRNA, 0.56 μM (human PKK mRNA [1]; 0.56 μM antisense oligonucleotide): 27% | percent inhibition of PKK mRNA, 1.67 μM (human PKK mRNA [1]; 1.67 μM antisense oligonucleotide): 91% | percent inhibition of PKK mRNA, 5.00 μM (human PKK mRNA [1]; 5.00 μM antisense oligonucleotide): 94% | IC50 (human PKK mRNA [1]; 0.19-5.00 μM): 900 nM | % inhibition (human PKK mRNA [2]; [6]): 83%

547360 (eA*eA*e[5mC]*e[5mC]*eA*dA*dT*dT*dT*d[5mC]*dT*dG*dA*dA*dA*eG*eG*eG*e[5mC]*eA; antisense) [compound 547360]
percent inhibition of PKK at 0.19 μM (human PKK mRNA [1]; [9]): 8% | percent inhibition of PKK at 0.56 μM (human PKK mRNA [1]; [9]): 27% | percent inhibition of PKK at 1.67 μM (human PKK mRNA [1]; [9]): 76% | percent inhibition of PKK at 5.00 μM (human PKK mRNA [1]; [9]): 76% | IC50 (human PKK mRNA [1]; 4 point dose response, Table 37): 800 nM | % inhibition (human PKK mRNA [2]; [6]): 88%

547647 (eG*eT*e[5mC]*e[5mC]*eT*dA*dT*dA*dT*d[5mC]*dA*d[5mC]*dT*dG*dT*eA*e[5mC]*e[5mC]*eT*eA; antisense) [compound 547647]
percent inhibition of PKK at 0.19 μM (human PKK mRNA [1]; [7]): 1% | percent inhibition of PKK at 0.56 μM (human PKK mRNA [1]; [7]): 70% | percent inhibition of PKK at 1.67 μM (human PKK mRNA [1]; [7]): 72% | IC50 (human PKK mRNA [1]; 4 point dose response, Table 35): 800 nM | % inhibition (human PKK mRNA [2]; [5]): 92%
